This test deals with L1210 leukemia ip in BDF1 mice, survival T/C. Put plainly: NCI In Vivo Anticancer Drug Screen. Data for tumor model L1210 Leukemia (intraperitoneal) in B6D2F1 (BDF1) mice. Conditions: endpoint: mean survival time, higher = longer survival. The gist of the method: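 Ratio derived from survival: compound-dosed mice over vehicle-dosed mice, all bearing a transplantable tumor.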

[1] abbreviates: dose: 50.0 mg/kg/injection, schedule: Q04DX003 (ip), vehicle: Klucel (hydroxypropylcellulose) (HPC).
Setting [2] is: dose: 100.0 mg/kg/injection, schedule: Q01DX005 (ip), vehicle: saline.
Where [3] appears, read: dose: 100.0 mg/kg/injection, schedule: Q04DX003 (ip), vehicle: Klucel (hydroxypropylcellulose) (HPC).
The mark [4] stands for this setting: dose: 200.0 mg/kg/injection, schedule: Q01DX005 (ip), vehicle: saline.
Setting [5] is: dose: 400.0 mg/kg/injection, schedule: Q01DX005 (ip), vehicle: saline.
The mark [6] stands for this setting: dose: 200.0 mg/kg/injection, schedule: Q04DX003 (ip), vehicle: Klucel (hydroxypropylcellulose) (HPC).
The mark [7] stands for this setting: dose: 400.0 mg/kg/injection, schedule: Q04DX003 (ip), vehicle: Klucel (hydroxypropylcellulose) (HPC).
[8] abbreviates: dose: 100.0 mg/kg/injection, schedule: Q01DX009 (ip), vehicle: Klucel (hydroxypropylcellulose) (HPC).
Setting [9] is: dose: 200.0 mg/kg/injection, schedule: Q01DX009 (ip), vehicle: Klucel (hydroxypropylcellulose) (HPC).
Setting [10] is: dose: 100.0 mg/kg/injection, schedule: Q01DX009 (ip), vehicle: saline with Tween-80.
Setting [11] is: dose: 200.0 mg/kg/injection, schedule: Q01DX009 (ip), vehicle: saline with Tween-80.

The text below walks through data of PubChem BioAssay AID248 (DTP/NCI, 2004).

SMILES strings stand for the structures. Toxic doses and inconclusive results are not listed.

As for `OCc1ccc(-c2ccccc2)cc1`, the T/C is, setting by setting: (dose: 25.0 mg/kg/injection, schedule: Q04DX003 (ip), vehicle: Klucel (hydroxypropylcellulose) (HPC)) 108 % of control; (dose: 50.0 mg/kg/injection, schedule: Q01DX005 (ip), vehicle: saline) 94 % of control; under setting [1], 103 % of control; under setting [2], 112 % of control; under setting [3], 103 % of control; under setting [4], 100 % of control. Also, the T/C under setting [5] is 102 % of control.

Regarding `NC(CCCc1ccccc1)C(=O)O` (stereo unspecified), the T/C is 98 % of control under setting [1], 96 % of control under setting [3], 88 % of control under setting [6] and 94 % of control under setting [7].

On to `CCCCCCCCOc1ccc(C=Nc2ccc(C)cc2)cc1`, for which the T/C runs as follows: under setting [8], 98 % of control; under setting [9], 104 % of control; (dose: 400.0 mg/kg/injection, schedule: Q01DX009 (ip), vehicle: Klucel (hydroxypropylcellulose) (HPC)) 92 % of control.

As for `O=[N+]([O-])c1cccc(-c2nn[nH]n2)c1`, the T/C is 94 % of control (dose: 100.0 mg/kg/injection, schedule: Q04DX003 (ip), vehicle: saline); 94 % of control (dose: 200.0 mg/kg/injection, schedule: Q04DX003 (ip), vehicle: saline); 96 % of control (dose: 400.0 mg/kg/injection, schedule: Q04DX003 (ip), vehicle: saline).

For `O=C1NC(c2ccc(Cl)cc2)N2C(=O)NC(c3ccc(Cl)cc3)N12` (stereo unspecified), the T/C is 97 % of control (dose: 50.0 mg/kg/injection, schedule: Q04DX002 (ip), vehicle: saline with Tween-80); 94 % of control (dose: 100.0 mg/kg/injection, schedule: Q04DX002 (ip), vehicle: saline with Tween-80); 97 % of control (dose: 200.0 mg/kg/injection, schedule: Q04DX002 (ip), vehicle: saline with Tween-80).

In the case of `CCCCCOc1ccc(Nc2c3ccccc3nc3ccccc23)cc1`, the T/C by setting is: (dose: 100.0 mg/kg/injection, schedule: Q01DX001 (ip), vehicle: Klucel (hydroxypropylcellulose) (HPC)) 102 % of control; (dose: 200.0 mg/kg/injection, schedule: Q01DX001 (ip), vehicle: Klucel (hydroxypropylcellulose) (HPC)) 111 % of control; (dose: 400.0 mg/kg/injection, schedule: Q01DX001 (ip), vehicle: Klucel (hydroxypropylcellulose) (HPC)) 107 % of control.

Take `NC(=O)N1c2ccccc2C=Cc2ccccc21`: the T/C by setting is: (dose: 12.5 mg/kg/injection, schedule: Q01DX009 (ip), vehicle: Klucel (hydroxypropylcellulose) (HPC)) 93 % of control; (dose: 25.0 mg/kg/injection, schedule: Q01DX009 (ip), vehicle: Klucel (hydroxypropylcellulose) (HPC)) 93 % of control; (dose: 50.0 mg/kg/injection, schedule: Q01DX009 (ip), vehicle: Klucel (hydroxypropylcellulose) (HPC)) 96 % of control; under setting [8], 89 % of control; (dose: 100.0 mg/kg/injection, schedule: Q04DX002 (ip), vehicle: Klucel (hydroxypropylcellulose) (HPC)) 103 % of control; under setting [9], 94 % of control. Further, the T/C runs as follows: (dose: 200.0 mg/kg/injection, schedule: Q04DX002 (ip), vehicle: Klucel (hydroxypropylcellulose) (HPC)) 110 % of control; (dose: 400.0 mg/kg/injection, schedule: Q04DX002 (ip), vehicle: Klucel (hydroxypropylcellulose) (HPC)) 110 % of control.

`Fc1cnc(OC23CC4CC(CC(C4)C2)C3)nc1OC12CC3CC(CC(C3)C1)C2`: the T/C is 86 % of control under setting [3], 88 % of control under setting [6] and 88 % of control under setting [7].

On to `CCOC(=O)CCCCSCCCCC(=O)OCC`, for which the T/C runs as follows: under setting [10], 91 % of control; under setting [11], 101 % of control; (dose: 400.0 mg/kg/injection, schedule: Q01DX009 (ip), vehicle: saline with Tween-80) 102 % of control.

On to `COC(=N)c1nn(C2OC(CO)C(O)C2O)c2ncnc(N)c12` (stereo unspecified), for which the T/C under setting [2] is 115 % of control, the T/C under setting [4] was 153 % of control and the T/C under setting [5] is 164 % of control.

On to `CCCCCCCCCCC(CCCCCCC)(CCCCCCCC)CCCCCCCCC` (stereo unspecified), for which the T/C runs as follows: (dose: 133.0 mg/kg/injection, schedule: Q01DX001 (ip), vehicle: saline with Tween-80) 102 % of control; (dose: 200.0 mg/kg/injection, schedule: Q01DX001 (ip), vehicle: saline with Tween-80) 107 % of control; (dose: 300.0 mg/kg/injection, schedule: Q01DX001 (ip), vehicle: saline with Tween-80) 102 % of control; (dose: 400.0 mg/kg/injection, schedule: Q01DX001 (ip), vehicle: saline with Tween-80) 101 % of control.

Turning to `CC1(C)CN(CCC#N)C(c2ccc([N+](=O)[O-])cc2)O1` (stereo unspecified), the T/C is, setting by setting: (dose: 50.0 mg/kg/injection, schedule: Q01DX001 (ip), vehicle: carboxymethylcellulose (CMC)) 106 % of control; (dose: 100.0 mg/kg/injection, schedule: Q01DX001 (ip), vehicle: carboxymethylcellulose (CMC)) 106 % of control; (dose: 200.0 mg/kg/injection, schedule: Q01DX001 (ip), vehicle: carboxymethylcellulose (CMC)) 114 % of control; (dose: 400.0 mg/kg/injection, schedule: Q01DX001 (ip), vehicle: carboxymethylcellulose (CMC)) 108 % of control.

Take `CCC(=O)C(C)(C)c1ccccc1` (tested in a mixture with another compound): the T/C (dose: 50.0 mg/kg/injection, schedule: Q01DX009 (ip), vehicle: saline with Tween-80) was 95 % of control; the T/C under setting [10] was 88 % of control; the T/C under setting [11] is 96 % of control.

Turning to `O=C(Nc1ccccc1)OCCCC1CCCC1`, the T/C by setting is: (dose: 100.0 mg/kg/injection, schedule: Q01DX009 (sc), vehicle: olive oil, sesame oil, peanut oil) 108 % of control; (dose: 200.0 mg/kg/injection, schedule: Q01DX009 (sc), vehicle: olive oil, sesame oil, peanut oil) 105 % of control; (dose: 400.0 mg/kg/injection, schedule: Q01DX009 (sc), vehicle: olive oil, sesame oil, peanut oil) 100 % of control.

As to `Nc1ccc(S(=O)(=O)Nc2ccc(Nc3c4ccccc4nc4ccccc34)cc2)cc1`, the T/C by setting is: (dose: 3.0 mg/kg/injection, schedule: Q01DX009 (ip), vehicle: saline with Tween-80) 122 % of control; (dose: 6.0 mg/kg/injection, schedule: Q01DX009 (ip), vehicle: saline with Tween-80) 120 % of control.
